Assay results published in patent publication US9827219B2, “Compositions and methods for lowering levels of high-sensitivity C-reactive protein (HS-CRP) in a subject” (priority 2012, dated 2017).

Test system: cognitive performance in subjects with AAMI
Assay: CDR computerized cognitive test battery, 6-week pilot study in Age-Associated Memory Impairment (Example 1)
Format: in vivo, human
Conditions: for Quality of Episodic Secondary Memory, LS mean difference vs placebo: overall
Protocol: A single-center, 6-week, double-blind, randomizes, parallel-group, placebo-controlled, dose-ranging pilot study was performed to evaluate the efficacy, tolerability, and safety of >96% ethyl-EPA in subjects with subjective and objective memory impairment according to generally accepted criteria for Age-Associated Memory Impairment (“AAMI”). The primary objective of the study was to determine the effect of >96% ethyl-EPA 1 g, 2 g, and 4 g daily, compared to placebo, on cognitive performance in subjects with AAMI.
The population for this study was men and women between ages 50 and 70 with self-reported complaints of memory loss, subjective and objective cognitive impairment with a score of at least one standard deviation below that of the mean for age-matched elderly population as determined by the total score of between 13 and 20 from the Paired Associated Learning (“PAL”) subset of the Wechsler Memory Scale, evidence of adequate intellectual function as determined by a scaled score of at least 9 (raw score of at least 32) on the Vocabulary subtest of the Wechsler Adult Intelligence Scale and absence of dementia as determined by a score of 24 or higher on the Mini-Mental State Examination (“MMSE”).
Ninety-four subjects were randomized into one of six groups: 1 g E-EPA daily (n=23), 2 g E-EPA daily (n=24), 4 g E-EPA daily (n=24), 1 g placebo daily (n=7), 2 g placebo daily (n=8), and 4 g placebo daily (n=8). E-EPA was provided as 500 mg soft gel capsules containing >96% E-EPA and 0.2% dl-α-tocopherol as an antioxidant. Placebo capsules contained 467 mg of liquid paraffin and 0.2% dl-α-tocopherol. Ninety-one subjects completed the study. Two subjects in the 2 g E-EPA group and one subject in the 2 g placebo group discontinued the study.
The study consisted of a screening visit, a training visit, and four study visits. At the screening visit, subjects' eligibility was determined through cognitive tests (verbal paired associated learning [PAL] subscale, vocabulary subtest, Memory Assessment Clinics Questionnaire [MAC-Q], mini mental state evaluation [MMSE] and MINI [mini international neuropsychiatric interview; sections 1 and 2 of Diagnostic and Statistical Manual of Mental Disorders, 4th Edition (DSM-IV) plus dysthymia]), haematology, clinical chemistry and 12-lead electrocardiogram (ECG). At the training visit, subjects were shown how to use the CDR computerized system. Subjects took study drug for 6 weeks and on Days 0, 14, 28 and 42, subjects underwent the CDR cognitive test battery.
A selection of tasks from the CDR computerized cognitive assessment system were administered at Visit 2 (training visit), Visit 3 (baseline), Visit 4 (Day 14), Visit 5 (Day 28) and Visit 6 (Day 42). Parallel forms of the tests were presented at each testing session. All tasks were computer-controlled, the information presented on high resolution monitors, and the responses recorded via a response model containing two buttons: one marked ‘no’ and the other ‘yes’. Five CDR composite scores were used as the primary/secondary outcome variables. The task titles were: • Word Presentation • Immediate Word Recall • Picture Presentation • Simple Reaction Time • Digit Vigilance • Choice Reaction Time • Spatial Working Memory • Numeric Working Memory • Delayed Word Recall • Word Recognition • Picture Recognition • Bond-Lader Visual Analogue Scales of Mood and Alertness • Screen, Using the Computer Mouse
To ensure consistency of approach, full training on the cognitive tests and CDR test battery was provided to study site staff and study subjects. The results of each variable were automatically recorded using the machine interface developed by CDR.
Summary statistics were provided for the ITT and Study Per Protocol Populations separately for all composite scores, major and supportive variables. Summary statistics were performed for both the unadjusted and difference from baseline data (i.e. the difference from the time matched predose assessments on Day 0). […]

[1] = ITT, ANCOVA, 1, 2, 4 g daily vs placebo
[2] = post-hoc vs corresponding placebo
[3] = post-hoc vs corresponding placebo, 1 g, Days 14 and 28

## CC/C=C\C/C=C\C/C=C\C/C=C\C/C=C\CCCC(=O)OCC [AMR101, all-cis eicosa-5,8,11,14,17-pentaenoic acid ethyl ester]
ITT
  Self-Rated Contentment, LS mean difference to placebo: no statistically significant effects
ITT, 1 g, AM 1, p=0.040
  Immediate Word Recall Accuracy, LS mean difference vs placebo: statistically significant decreases
ITT, 1 g, Day 14, p=0.028
  Immediate Word Recall Accuracy, LS mean difference vs placebo: statistically significant decreases
ITT, 1 g, Day 14 at AM 2, p=0.084
  Picture Recognition Speed, LS mean difference vs placebo: trends for benefits versus placebo
ITT, 1 g, Day 14 at PM 2, p=0.020
  Immediate Word Recall Accuracy, LS mean difference vs placebo: statistically significant decreases
ITT, 1 g, Day 28, p=0.024
  Word Recognition Sensitivity Index, LS mean difference vs placebo: statistically significant decreases
ITT, 1 g, Day 28 at AM 1, p=0.085
  Picture Recognition Speed, LS mean difference vs placebo: trends for benefits versus placebo
ITT, 1 g, Day 28 at AM 2, p=0.017
  Picture Recognition Sensitivity Index, LS mean difference vs placebo: statistically significant decrease
ITT, 1 g, Day 28 at PM 2, p=0.040
  Picture Recognition Sensitivity Index, LS mean difference vs placebo: statistically significant decrease
ITT, 1 g, p=0.040
  Quality of Episodic Secondary Memory, LS mean difference vs placebo: statistically significant decreases versus placebo
ITT, 2 g, AM 1, p=0.028
  Immediate Word Recall Accuracy, LS mean difference vs placebo: statistically significant decreases
ITT, 2 g, Day 28, p=0.017
  Immediate Word Recall Accuracy, LS mean difference vs placebo: statistically significant decreases
ITT, 2 g, Day 28, p=0.047
  Self-Rated Alertness, LS mean difference vs placebo: statistically significant decrease in ratings
ITT, 2 g, Day 28 at AM 1, p=0.006
  Immediate Word Recall Accuracy, LS mean difference vs placebo: statistically significant decreases
ITT, 2 g, Day 28 at AM 2, p=0.041
  Self-Rated Alertness, LS mean difference vs placebo: statistically significant decrease in ratings
ITT, 2 g, p=0.035
  Quality of Episodic Secondary Memory, LS mean difference vs placebo: statistically significant decreases versus placebo
ITT, 4 g, Day 14 at PM 1, p=0.048
  Spatial Working Memory Speed, LS mean difference vs placebo: statistically significant benefit versus placebo
ITT, 4 g, Day 28 at PM 2, p=0.030
  Word Recognition Sensitivity Index, LS mean difference vs placebo: statistically significant decrease
ITT, 4 g, Day 42, p=0.038
  Word Recognition Sensitivity Index, LS mean difference vs placebo: statistically significant decreases
ITT, 4 g, Day 42 at AM 1, p=0.061
  Spatial Working Memory Speed, LS mean difference vs placebo: trend for a benefit
ITT, 4 g, PM 2, p=0.045
  Word Recognition Sensitivity Index, LS mean difference vs placebo: statistically significant decrease
ITT, ANCOVA
  Continuity of Attention: no statistically significant effect of treatment
  Delayed Word Recall Accuracy: no statistically significant effects of treatment
  Digit Vigilance Targets Detected: no statistically significant effect of treatment
  Immediate Word Recall Accuracy: no statistically significant effects of treatment
  Numeric Working Memory Speed: no statistically significant effects of treatment
  Picture Recognition Sensitivity Index: no statistically significant effects of treatment
  Picture Recognition Speed: no statistically significant effects of treatment
  Quality of Episodic Secondary Memory: no statistically significant effect of treatment
  Self-Rated Alertness: no statistically significant effect of treatment
  Self-Rated Calmness: no statistically significant effect of treatment
  Spatial Working Memory Speed: no statistically significant effects of treatment
  Speed of Memory: no statistically significant effects of treatment
  Word Recognition Sensitivity Index: no statistically significant effects of treatment
  Word Recognition Speed: no statistically significant effects of treatment
[1]
  Digit Vigilance Speed: no statistically significant effects of treatment
  Power of Attention: no statistically significant effect of treatment
  Simple Reaction Time: no statistically significant effects of treatment
ITT, ANCOVA, p<0.001
  Self-Rated Contentment: statistically significant treatment by day interaction
ITT, ANCOVA, p=0.011
  Choice Reaction Time: statistically significant treatment by day interaction
ITT, ANCOVA, p=0.015
  Spatial Working Memory Sensitivity Index: statistically significant treatment by day interaction
ITT, ANCOVA, p=0.019
  Quality of Working Memory: statistically significant treatment by day interaction
ITT, ANCOVA, p=0.089
  Numeric Working Memory Sensitivity Index: statistical trend for a treatment by day interaction
ITT, any time-point
  Power of Attention, LS mean difference active vs placebo: no LS mean difference between active treatment and placebo
Study Per Protocol, ANCOVA
  Continuity of Attention: no statistically significant effect of treatment
Study Per Protocol, ANCOVA, p=0.040
  Digit Vigilance Targets Detected: statistically significant treatment by time-point interaction
Study Per-Protocol
  Self-Rated Contentment, LS mean difference to placebo: no statistically significant effects
Study Per-Protocol, 1 g, AM 1, p=0.038
  Immediate Word Recall Accuracy, LS mean difference to placebo: statistically significant decreases
Study Per-Protocol, 1 g, AM 2, p=0.048
  Immediate Word Recall Accuracy, LS mean difference to placebo: statistically significant decreases
Study Per-Protocol, 1 g, Day 14, p=0.024
  Immediate Word Recall Accuracy, LS mean difference to placebo: statistically significant decreases
Study Per-Protocol, 1 g, Day 14 at PM 2, p=0.019
  Immediate Word Recall Accuracy, LS mean difference to placebo: statistically significant decreases
Study Per-Protocol, 1 g, Day 28, p=0.027
  Word Recognition Sensitivity Index, LS mean difference to placebo: statistically significant decreases
Study Per-Protocol, 1 g, Day 28 at AM 2, p=0.020
  Picture Recognition Sensitivity Index, LS mean difference vs placebo: statistically significant decreases versus placebo
Study Per-Protocol, 1 g, Day 28 at PM 2, p=0.026
  Picture Recognition Sensitivity Index, LS mean difference vs placebo: statistically significant decreases versus placebo
Study Per-Protocol, 1 g, p=0.043
  Quality of Episodic Secondary Memory, LS mean difference vs placebo: statistically significant decreases versus placebo
Study Per-Protocol, 2 g, AM 1, p=0.029
  Immediate Word Recall Accuracy, LS mean difference to placebo: statistically significant decreases
Study Per-Protocol, 2 g, Day 28, p=0.017
  Immediate Word Recall Accuracy, LS mean difference to placebo: statistically significant decreases
Study Per-Protocol, 2 g, Day 28, p=0.035
  Self-Rated Alertness, LS mean difference vs placebo: statistically significant decrease in ratings
Study Per-Protocol, 2 g, Day 28 at AM 1, p=0.006
  Immediate Word Recall Accuracy, LS mean difference to placebo: statistically significant decreases
Study Per-Protocol, 2 g, Day 28 at AM 2, p=0.033
  Self-Rated Alertness, LS mean difference vs placebo: statistically significant decrease in ratings
Study Per-Protocol, 2 g, p=0.036
  Quality of Episodic Secondary Memory, LS mean difference vs placebo: statistically significant decreases versus placebo
Study Per-Protocol, 4 g, Day 42, p=0.038
  Word Recognition Sensitivity Index, LS mean difference to placebo: statistically significant decreases
Study Per-Protocol, 4 g, Day 42 at PM 1, p=0.071
  Self-Rated Calmness, LS mean difference vs placebo: statistical trend for an increase in ratings versus placebo
Study Per-Protocol, ANCOVA
  Delayed Word Recall Accuracy: no statistically significant effects of treatment
  Digit Vigilance Speed: no statistically significant effects of treatment
  Immediate Word Recall Accuracy: no statistically significant effects of treatment
  Numeric Working Memory Speed: no statistical significant effects of treatment
  Picture Recognition Sensitivity Index: no statistically significant effects of treatment
  Picture Recognition Speed: no statistical significant effects of treatment
  Power of Attention: no statistically significant effect of treatment
  Quality of Episodic Secondary Memory: no statistically significant effects of treatment
  Self-Rated Alertness: no statistically significant effect of treatment
  Self-Rated Calmness: no statistically significant effect of treatment
  Simple Reaction Time: no statistically significant effects of treatment
  Spatial Working Memory Speed: no statistical significant effects of treatment
  Speed of Memory: no statistical significant effects of treatment
  Word Recognition Sensitivity Index: no statistically significant effects of treatment
  Word Recognition Speed: no statistical significant effects of treatment
Study Per-Protocol, ANCOVA, p<0.001
  Self-Rated Contentment: statistically significant treatment by day interaction
Study Per-Protocol, ANCOVA, p=0.013
  Choice Reaction Time: statistically significant treatment by day interaction
Study Per-Protocol, ANCOVA, p=0.014
  Spatial Working Memory Sensitivity Index: statistically significant treatment by day interaction
Study Per-Protocol, ANCOVA, p=0.021
  Quality of Working Memory: statistically significant treatment by day interaction
Study Per-Protocol, any time-point
  Power of Attention, difference active vs placebo: no difference between active treatment and placebo
[2]
  Continuity of Attention: no general pattern of effects
  Numeric Working Memory Sensitivity Index: only isolated improvements and declines in performance
  Quality of Working Memory: only isolated improvements and declines in performance
  Self-Rated Calmness: no differences between active treatment and placebo
post-hoc vs corresponding placebo group, 4 g, Day 42
  Power of Attention: overall benefit versus the corresponding placebo
[3]
  Self-Rated Alertness: decreases in ratings
  Self-Rated Contentment: decreases in ratings
post-hoc vs corresponding placebo, 4 g, Day 42
  Choice Reaction Time: superior to placebo at every time point
post-hoc vs corresponding placebo, 4 g, Day 42, Study PP Population
  Spatial Working Memory Sensitivity Index: overall benefit for ethyl-EPA 4 g over placebo
post-hoc vs corresponding placebo, 4 g, PM 2 collapsed across days, several time-points on Days 14 and 42
  Simple Reaction Time: improvements in performance
post-hoc vs corresponding placebo, 4 g, all study days
  Choice Reaction Time: overall benefit versus corresponding placebo
post-hoc vs corresponding placebo, explained by pre-existing differences between groups
  Quality of Episodic Secondary Memory and contributing subtasks: a number of decreases for ethyl-EPA
post-hoc vs corresponding placebo, mostly 1 g
  Subtask measures of Speed of Memory: some signs of improvement in performance
